# Source: patent publication US8501800B2, “Controlled-release ophthalmic vehicles” (Insite Vision Incorporated, priority 2009, dated 2013)
# Experiment: Release of fluorometholone in the rabbit eye, measured in aqueous humor
# Type: in vivo
# Conditions: measured by fluorometholone contained in the aqueous humor
# Procedure: The viscous gels that result upon administration of the aqueous suspensions of this invention to the eye have residence times in the eye ranging from about 2 to about 12 hours, e.g., from about 3 to about 6 hours. The active ingredients contained in these ophthalmically acceptable vehicles are released from the gels at rates that depend on such factors as the active ingredient itself and its physical form, the extent of drug loading and the pH of the system, as well as on any drug delivery adjuvants, such as ion exchange resins compatible with the ocular surface, which can also be present.
structure (smiles),measurement,value
CC(=O)[C@@]1(O)CC[C@H]2[C@@H]3C[C@H](C)C4=CC(=O)C=C[C@]4(C)[C@@]3(F)[C@@H](O)C[C@@]21C [fluorometholone],Release rates in the rabbit eye,in excess of four hours
